Source: ChEMBL document CHEMBL1201862, “PubChem BioAssay data set” (2004)
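A five-concentration, 48-hour dose response in 96-well plates underlies each endpoint, interpolated linearly between surrounding concentrations. At the GI50, growth is halved.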 The source made the active and inactive calls. No stated cut-off is given here; in the data, active = GI50 up to about 1.1 µM and inactive = higher.

Key:
Experiment in all cases: inhibition of tumour cell growth, NCI panel, 48 h
EKVX = system: EKVX
MCF7 = system: MCF7
OVCAR-8 = system: OVCAR-8
NCI-H226 = system: NCI-H226
COLO 205 = system: COLO 205
SR = system: SR
MOLT-4 = system: MOLT-4
T47D = system: T47D
IGROV-1 = system: IGROV-1
MDA-N = system: MDA-N
M14 = system: M14
OVCAR-4 = system: OVCAR-4
Hs-578T = system: Hs-578T
HOP-62 = system: HOP-62
RPMI-8226 = system: RPMI-8226
SN12C = system: SN12C
SK-MEL-5 = system: SK-MEL-5
SNB-75 = system: SNB-75
NCI-H23 = system: NCI-H23
RXF 393 = system: RXF 393

Measured: GI50

COC(=O)C1(Cc2ccccc2)Cc2ccccc2C1
inactive: EKVX 9.84 µM | MCF7 25.1 µM | OVCAR-8 22.8 µM | NCI-H226 25.6 µM | COLO 205 19.1 µM | SR 24.4 µM | MOLT-4 14.8 µM | T47D 21.5 µM | IGROV-1 28.4 µM | MDA-N 17.3 µM | M14 17.1 µM | OVCAR-4 22.4 µM | Hs-578T 27.5 µM | HOP-62 32.1 µM | RPMI-8226 20.4 µM | SN12C 25.4 µM | SK-MEL-5 15.7 µM | SNB-75 23.3 µM | NCI-H23 23.2 µM

O=C(Sc1c(-c2ccccc2)c(=O)n(-c2ccccc2)c(=S)n1-c1ccccc1)c1cccs1
inactive: EKVX > 100 µM | MCF7 50.4 µM | OVCAR-8 73.3 µM | NCI-H226 > 100 µM | COLO 205 > 100 µM | SR 38.4 µM | MOLT-4 18.7 µM | T47D > 100 µM | IGROV-1 49.7 µM | MDA-N 70 µM | M14 53.6 µM | OVCAR-4 > 100 µM | Hs-578T > 100 µM | HOP-62 > 100 µM | RPMI-8226 24.4 µM | SN12C 50.4 µM | SK-MEL-5 19.2 µM | SNB-75 29.6 µM | NCI-H23 > 100 µM

CCOc1ccc(/N=C/C=C(\Cl)c2ccc3ccccc3c2)cc1
inactive: EKVX 27.2 µM | MCF7 17.7 µM | OVCAR-8 16.2 µM | NCI-H226 22.4 µM | COLO 205 16.7 µM | SR 2.52 µM | MOLT-4 2.55 µM | T47D 4.95 µM | IGROV-1 17.1 µM | M14 20.8 µM | RXF 393 15.3 µM | OVCAR-4 10.6 µM | Hs-578T 29.8 µM | HOP-62 15.3 µM | RPMI-8226 6.65 µM | SN12C 17.4 µM | SK-MEL-5 16.4 µM | SNB-75 14.3 µM | NCI-H23 10.6 µM

CN(C)CC1COC2Cc3ccccc3C1O2 (configuration not stated)
inactive: EKVX > 100 µM | MCF7 > 100 µM | OVCAR-8 > 100 µM | NCI-H226 > 100 µM | COLO 205 > 100 µM | SR > 100 µM | MOLT-4 > 100 µM | T47D > 100 µM | IGROV-1 > 100 µM | MDA-N > 100 µM | M14 > 100 µM | RXF 393 > 100 µM | OVCAR-4 > 100 µM | Hs-578T > 100 µM | HOP-62 > 100 µM | RPMI-8226 > 100 µM | SN12C > 100 µM | SK-MEL-5 > 100 µM | NCI-H23 > 100 µM

O=C(O)COCC(=O)N(CCOCCN(Cc1ccccc1)C(=O)COCC(=O)O)Cc1ccccc1
inactive: EKVX > 100 µM | MCF7 > 100 µM | OVCAR-8 > 100 µM | NCI-H226 > 100 µM | COLO 205 > 100 µM | SR > 100 µM | MOLT-4 > 100 µM | T47D > 100 µM | IGROV-1 > 100 µM | MDA-N > 100 µM | M14 > 100 µM | RXF 393 > 100 µM | Hs-578T > 100 µM | HOP-62 > 100 µM | RPMI-8226 > 100 µM | SN12C > 100 µM | SK-MEL-5 > 100 µM | NCI-H23 > 100 µM

C[C@H](CCC(=O)O)[C@H]1CC[C@H]2[C@@H]3CC[C@@H]4C[C@H](O)CC[C@]4(C)[C@H]3C[C@H](O)[C@]12C [DEOXYCHOLIC ACID]
inactive: EKVX 31.4 µM | MCF7 36.2 µM | OVCAR-8 39.4 µM | NCI-H226 95.1 µM | COLO 205 27.9 µM | MOLT-4 26.5 µM | T47D 31.4 µM | IGROV-1 27.9 µM | MDA-N 42.2 µM | M14 34.3 µM | RXF 393 52.4 µM | OVCAR-4 49.7 µM | Hs-578T 40.7 µM | HOP-62 26.4 µM | RPMI-8226 25.8 µM | SN12C 34 µM | SK-MEL-5 37.8 µM | SNB-75 37.1 µM | NCI-H23 39.7 µM

NS(=O)(=O)c1cc2c(cc1Cl)NCNS2(=O)=O [HYDROCHLOROTHIAZIDE]
inactive: EKVX > 100 µM | MCF7 > 100 µM | OVCAR-8 > 100 µM | NCI-H226 > 100 µM | COLO 205 > 100 µM | SR > 100 µM | MOLT-4 > 100 µM | T47D > 100 µM | IGROV-1 > 100 µM | MDA-N > 100 µM | M14 > 100 µM | OVCAR-4 > 100 µM | Hs-578T > 100 µM | HOP-62 > 100 µM | RPMI-8226 > 100 µM | SN12C > 100 µM | SK-MEL-5 > 100 µM | SNB-75 > 100 µM | NCI-H23 > 100 µM
